This is an account of results in patent US20260256780A1, “COMPOSITIONS FOR INDUCING RAS GTP HYDROLYSIS AND USES THEREOF” (Revolution Medicines, Inc., priority 2023, published 2026).

This experiment addresses T1, GTP-loaded KRAS proteins (residue 1-169 of KRAS4B) (Homo sapiens, UniProt P01116, G12V).
T1 construct: recombinant KRAS proteins (residue 1-169 of KRAS4B); His6 (TEV protease-cleavable) (cleaved yes); made in house; host or cells: E. coli
Description: RAS GTP hydrolysis rate assay (GTPase-Glo) with cyclophilin A. The experiment is classed as biochemical. The conditions noted are these: bound in tri-complex with cyclophilin A; in some embodiments KRAS^G12V is the isoform used. The protocol:
The rate of RAS GTP hydrolysis was assayed in the presence of various KRAS mutations. To assess GTP hydrolysis activity, recombinant KRAS proteins (residue 1-169 of KRAS4B) were expressed in E. coli and purified using a TEV protease-cleavable His6-tag and Ni^2+ affinity chromatography. The His6 tag was removed by treatment with TEV protease, and the KRAS protein was isolated by passing through a second Ni^2+ column followed by size exclusion chromatography. The purified KRAS proteins were loaded with GTP by incubation for 2 hours on ice with 2 mM GTP and 10 mM Ethylenediaminetetraacetic Acid, followed by addition of 10 mM MgCl2 and incubation on ice for 1 additional hour. The excess GTP was removed by overnight dialysis against buffer (12.5 mM HEPES, 75 mM NaCl, pH 7.5) at 4° C. The GTP-loaded KRAS protein were flash frozen in liquid nitrogen, then stored at −80° C. until use.
GTP-loaded KRAS proteins (1 μM) were combined with 25 μM of recombinant human cyclophilin A and 10 μM of compound in reaction buffer (12.5 mM HEPES, 75 mM NaCl, 1 mM MgCl2, 1 mM DTT, 1% DMSO, pH 7.5) pre-warmed to 37° C. At fixed time points, aliquots were removed and quenched by heating to 80° C. to denature the proteins, then centrifuged to pellet the protein precipitate. The supernatant was assessed for GTP levels using Promega GTPase-Glo™ according to manufacturer instructions. The levels of GTP as a function of incubation time were fit to a single phase exponential decay to determine the rate constant for hydrolysis activity.
Turning to `CCn1c(-c2cc(N3CCN(C)CC3)cnc2[C@H](C)OC)c2c3cc(ccc31)-c1csc(n1)C[C@H](NC(=O)[C@H](C(C)C)N(C)C(=O)N(C)C)C(=O)N1CCC[C@H](N1)C(=O)OCC(C)(C)C2` (atropisomer, axis not shown) [compound 13], the “hydrolyzer class: RAS(ON) GTP hydrolysis rate relative to the intrinsic hydrolysis rate” value is recorded as 13 Moderate. As for `CCn1c(-c2cccnc2[C@H](C)OC)c2c3cc(ccc31)-c1csc(n1)C[C@H](NC(=O)[C@H](C(C)C)N(C)C(=O)N1CC(OC)C1)C(=O)N1CCC[C@H](N1)C(=O)OCC(C)(C)C2` (atropisomer, axis not shown) [compound 19], the figure is 19 Moderate. Turning to `CCn1c(-c2cc(N3CCN(C)CC3)cnc2[C@H](C)OC)c2c3cc(ccc31)N1CCO[C@@H](C[C@H](NC(=O)[C@H]3C[C@@H]3C)C(=O)N3CCC[C@H](N3)C(=O)OCC(C)(C)C2)C1` (atropisomer, axis not shown) [compound 22], the “hydrolyzer class: RAS(ON) GTP hydrolysis rate relative to the intrinsic hydrolysis rate” value is 22 Weak.

In the case of `CO[C@@H](C)c1ncc(N2CCN(C)CC2)cc1-c1c2c3cc(ccc3n1CC(F)(F)F)-c1csc(n1)C[C@H](NC(=O)[C@H]1C[C@@H]1C)C(=O)N1CCC[C@H](N1)C(=O)OCC(C)(C)C2` (atropisomer, axis not shown) [compound 11], the “hydrolyzer class: RAS(ON) GTP hydrolysis rate relative to the intrinsic hydrolysis rate” value is 11 Moderate. The result for `CCn1c(-c2cc(N3CCN(C)CC3)cnc2[C@H](C)OC)c2c3cc(ccc31)-c1cccc(n1)C[C@H](NC(=O)[C@H]1C[C@@H]1C)C(=O)N1CCC[C@H](N1)C(=O)OCC(C)(C)C2` (atropisomer, axis not shown) [compound 21] reads 21 Weak; that for `CCn1c(-c2cc(N3CCN(C)CC3)cnc2[C@H](C)OC)c2c3cc(ccc31)-c1csc(n1)C[C@H](NC(=O)[C@H](C(C)C)N(C)C(=O)N1CC(N(C)C)C1)C(=O)N1CCC[C@H](N1)C(=O)OCC(C)(C)C2` (atropisomer, axis not shown) [compound 14], 14 Moderate.

For `CCO[C@@H]1c2nc(cs2)-c2ccc3c(c2)c(c(-c2cc(N4CCN(C)CC4)cnc2[C@H](C)OC)n3CCOC(C)C)CC(C)(C)COC(=O)[C@@H]2CCCN(N2)C(=O)[C@H]1NC(=O)N1CC[C@H]1C` (atropisomer, axis not shown) [compound 18], the “hydrolyzer class: RAS(ON) GTP hydrolysis rate relative to the intrinsic hydrolysis rate” value was 18 Weak. Regarding `CCO[C@@H]1c2nc(cs2)-c2ccc3c(c2)c(c(-c2cc(N4CCN(C)CC4)cnc2[C@H](C)OC)n3CC)CC(C)(C)COC(=O)[C@@H]2CCCN(N2)C(=O)[C@H]1NC(=O)[C@H]1[C@H](C)[C@@H]1C` (atropisomer, axis not shown) [compound 15], the “hydrolyzer class: RAS(ON) GTP hydrolysis rate relative to the intrinsic hydrolysis rate” value came to 15 Moderate. As for `CCO[C@@H]1c2nc(cs2)-c2ccc3c(c2)c(c(-c2cc([C@@H]4CCN5CCOC[C@@H]5C4)cnc2[C@H](C)OC)n3CC)CC(C)(C)COC(=O)[C@@H]2CCCN(N2)C(=O)[C@H]1NC(=O)[C@H]1[C@H](C)[C@@H]1C` (atropisomer, axis not shown) [compound 16], the figure is 16 Moderate; as for `CO[C@@H](C)c1ncccc1-c1c2c3cc(ccc3n1CC(F)(F)F)CCN(C)C[C@H](NC(=O)[C@H]1C[C@@H]1C)C(=O)N1CCC[C@H](N1)C(=O)OCC(C)(C)C2` (atropisomer, axis not shown) [compound 9], 9 Weak; as for `CO[C@@H](C)c1ncccc1-c1c2c3cc(ccc3n1CC(F)(F)F)CCOC[C@H](NC(=O)[C@H]1C[C@@H]1C)C(=O)N1CCC[C@H](N1)C(=O)OCC(C)(C)C2` (atropisomer, axis not shown) [compound 10], 10 Moderate.
